Reference: publication PMC8537450, “Cyclopeptide Derivatives from the Sponge-Derived Fungus Acremonium persicinum F10” (Marine Drugs, 2021)
Like-named read-outs stand apart in the source and are kept apart here.

Legend:
Assay type in all cases: cell-based
[1] = tested on: non-small cell lung cancer cell line A549; assay: Cytotoxicity, MTT assay; settings: positive control
[2] = tested on: small cell lung cancer cell line H446; assay: Cytotoxicity, MTT assay; settings: printed H466, MTT, positive control
[3] = tested on: small cell lung cancer cell line H1688; assay: Cytotoxicity, MTT assay; settings: positive control
[4] = tested on: human embryonic lung fibroblast cell MRC-5; assay: Cytotoxicity, MTT assay; settings: MRC-5, MTT, positive control
[5] = tested on: Aspergillus fumigatus ATCC204305; assay: microbe, parasite or virus in culture
Procedure: (§1) Compounds 1–8 were tested for antifungal activities against Aspergillus fumigatus ATCC204305 and Aspergillus niger ATCC16404 using broth microdilution antifungal susceptibility testing, according to previously published protocol. In the experiments, the RPMI-1640 medium containing 10.4 g/L of RPMI-1640 medium (R8755; Sigma, St. Louis, MO, USA), 6.7 g/L of Yeast Nitrogen Base (YNB; Becton, Dickinson and Company, Franklin Lakes, NJ, USA), 1.8% (w/v) glucose, and 40 mM HEPES (pH = 7.1) was used as culture medium. The inoculum per well for a 96-well microplate was 2 × 10^4 fresh conidia/mL (150 µL/well), which were incubated for 24 h at 37 ℃. The minimal inhibitory concentration (MIC) in the assay were performed using resazurin at 0.002% (w/v) of final concentration.

[6] = tested on: Aspergillus niger ATCC16404; assay: microbe, parasite or virus in culture
Procedure: as §1

| SMILES | IC50 [1] | IC50 [2] | IC50 [3] | IC50 [4] | MIC ([5]; ATCC204305, Table S1, broth microdilution, RPMI-1640 + YNB + 1.8% glucose + 40 mM HEPES pH 7.1, 2 × 10^4 conidia/mL, 24 h, 37 °C, resazurin 0.002%, read-out: MIC) | MIC ([5]; ATCC204305, one range given for A. fumigatus and A. niger together, read-out: MIC values) | MIC ([5]; ATCC204305, text of method and conclusions, unit printed as μg/mL, read-out: MICs) | MIC ([6]; ATCC16404, Table S1, broth microdilution, RPMI-1640 + YNB + 1.8% glucose + 40 mM HEPES pH 7.1, 2 × 10^4 conidia/mL, 24 h, 37 °C, resazurin 0.002%, read-out: MIC) | MIC ([6]; ATCC16404, one range given for A. fumigatus and A. niger together, read-out: MIC values) | MIC ([6]; ATCC16404, text of method and conclusions, unit printed as μg/mL, read-out: MICs) |
| --- | --- | --- | --- | --- | --- | --- | --- | --- | --- | --- |
| N.N.[Cl][Pt][Cl] [Cisplatin] | 3.8 µM | 1.9 µM | 3 µM | 23.8 µM |  |  |  |  |  |  |
| C[C@@H]1[C@H](O)[C@@H](C)/C=C/C=C/C=C/C=C/C=C/C=C/C=C/[C@H](O[C@@H]2O[C@H](C)[C@@H](O)[C@H](N)[C@@H]2O)C[C@@H]2O[C@](O)(C[C@@H](O)C[C@@H](O)[C@H](O)CC[C@@H](O)C[C@@H](O)CC(=O)O[C@H]1C)C[C@H](O)[C@H]2C(=O)O [Amphotericin B] |  |  |  |  | 1 µM | 1 µM | 1 mg/L | 1 µM | 1 µM | 1 mg/L |
